Values after ≈ are worked out from the molar mass of the structure shown. Where a name gives a salt, the structure may show the parent alone.
What was measured:
[1] = tested on: Staphylococcus aureus ATCC 6538P; assay: Disc-plate assay (bioassay potency); format: cell-based; conditions: for potency (assay against standard Antibiotic JI-20B base): vs standard Antibiotic JI-20B base, assigned potency 1000 mcg/mg
Procedure: Peak antibiotic production is determined by a disc-plate assay which uses Staphylococcus aureus ATCC 6538P as the test organism and which is performed substantially as described by Oden, et al. Antimicrobial Agents and Chemotherapy, 1963, pages 8-13.
The reference standard is Antibiotic JI-20B base having an assigned potency of 1000 mcg/mg. One (1) microgram of the standard in one (1) ml. of 0.1M phosphate buffer at pH 8.0 elicits a zonal response of 16.8± 1.5 mm. The standard Antibiotic JI-20B sulfate assays 730 mcg/mg against the standard base. Antibiotic JI-20A base and the corresponding sulfate assay 723 mcg/mg. and 527 mcg/mg., respectively, when assayed against the standard Antibiotic JI-20B base.

[2] = tested on: Pseudomonas aeruginosa 413; assay: In vivo mouse protection test; conditions: ip, Pseudomonas aeruginosa 413 i.p. infection, dosed twice (0 and 4 h), survivors at 48 hours, read-out: PD50
Procedure: (§1) To determine the in vivo protective activity of the antibiotics against lethal infections of pathogenic bacterial origin in mice, mice were dosed twice with the individual antibiotic, with a solution or a suspension in an aqueous vehicle containing 0.5 % carboxy-methyl-cellulose (CMC), once immediately before an intraperitoneal injection of the infecting bacteria and once 4 hours after such injection. The number of survivors was determined 48 hours after infection and that data analyzed by standard probit procedures to determine PD50 values with 95% confidence limits. The following chart sets forth the protective activity of the antibiotics against a pathogenic bacterium.

[3] = tested on: Staphylococcus aureus; assay: In vivo mouse protection test; conditions: ip, Staphylococcus aureus i.p. infection, dosed twice (0 and 4 h), survivors at 48 hours, read-out: PD50
Procedure: as §1

[4] = tested on: Staphylococcus aureus Gray 979; assay: In vivo mouse protection test; conditions: GRAY979, ip, Staphylococcus aureus Gray 979 i.p. infection, dosed twice (0 and 4 h), survivors at 48 hours, read-out: PD50
Procedure: as §1

[5] = tested on: Streptococcus pyogenes C2V; assay: In vivo mouse protection test; conditions: ip, Streptococcus pyogenes C2V i.p. infection, dosed twice (0 and 4 h), survivors at 48 hours, read-out: PD50
Procedure: as §1

[6] = tested on: Escherichia coli 11775; assay: In vivo mouse protection test; conditions: ip, Escherichia coli 11775 i.p. infection, dosed twice (0 and 4 h), survivors at 48 hours, read-out: PD50
Procedure: as §1

[7] = tested on: Pseudomonas aeruginosa 1516-7; assay: In vivo mouse protection test; conditions: 15167, ip, Pseudomonas aeruginosa 1516-7 i.p. infection, dosed twice (0 and 4 h), survivors at 48 hours, read-out: PD50
Procedure: as §1

[8] = tested on: Salmonella sp. S.C.; assay: In vivo mouse protection test; conditions: 48 h, read-out: PD50
Procedure: as §1

[9] = tested on: Escherichia coli 626; assay: In vivo mouse protection test; conditions: ip, Escherichia coli 626 i.p. infection, dosed twice (0 and 4 h), survivors at 48 hours, read-out: PD50
Procedure: as §1

[10] = Acute toxicity; conditions: in vivo, iv, I.V.
[11] = pKa; format: physicochemical
[12] = tested on: Klebsiella pneumonia 13883; assay: In vitro MIC, Mueller-Hinton broth; format: cell-based; conditions: Klebsiella pneumoniae, 24 hours, expressed as free base, tested as sulfate
Procedure: (§2) In the table set forth below are test results after 24 hours incubation against representative gram positive and gram negative bacteria.

[13] = tested on: Pseudomonas aeruginosa 59; assay: In vitro MIC, Mueller-Hinton broth; format: cell-based; conditions: 24 hours, expressed as free base, tested as sulfate
Procedure: as §2

[14] = tested on: Escherichia coli 12740; assay: In vitro MIC, Mueller-Hinton broth; format: cell-based; conditions: 24 hours, expressed as free base, tested as sulfate
Procedure: as §2

[15] = tested on: Proteus mirabilis 8019; assay: In vitro MIC, Mueller-Hinton broth; format: cell-based; conditions: 24 hours, expressed as free base, tested as sulfate
Procedure: as §2

[16] = tested on: Staphylococcus aureus 2059; assay: In vitro MIC, Mueller-Hinton broth; format: cell-based; conditions: 24 hours, expressed as free base, tested as sulfate
Procedure: as §2

[17] = tested on: Klebsiella rhinoscleromatis 18804; assay: In vitro MIC, Mueller-Hinton broth; format: cell-based; conditions: Klebsiella pneumoniae, 24 hours, expressed as free base, tested as sulfate
Procedure: as §2

[18] = tested on: Escherichia coli 11775; assay: In vitro MIC, Mueller-Hinton broth; format: cell-based; conditions: 24 hours, expressed as free base, tested as sulfate
Procedure: as §2

[19] = tested on: Klebsiella pneumoniae 18; assay: In vitro MIC, Mueller-Hinton broth; format: cell-based; conditions: 24 hours, expressed as free base, tested as sulfate
Procedure: as §2

[20] = tested on: Staphylococcus aureus 70; assay: In vitro MIC, Mueller-Hinton broth; format: cell-based; conditions: 24 hours, expressed as free base, tested as sulfate
Procedure: as §2

[21] = tested on: Staphylococcus aureus 45; assay: In vitro MIC, Mueller-Hinton broth; format: cell-based; conditions: 24 hours, expressed as free base, tested as sulfate
Procedure: as §2

[22] = tested on: Pseudomonas aeruginosa 60; assay: In vitro MIC, Mueller-Hinton broth; format: cell-based; conditions: 24 hours, expressed as free base, tested as sulfate
Procedure: as §2

## CNC1C(O)C(OC2C(N)CC(N)C(OC3OC(CN)C(O)C(O)C3N)C2O)OCC1(C)O (stereo not shown) [Antibiotic JI-20A sulfate]
[1]
  potency (assay against standard Antibiotic JI-20B base): 527 µg/mg

## CNC1C(O)C(OC2C(N)CC(N)C(OC3OC(CN)C(O)C(O)C3N)C2O)OCC1(C)O (stereo not shown) [Antibiotic JI-20A]
[2]
  ED50: 50 mg/kg
[3]
  ED50: 2.9 mg/kg
[4]
  ED50: 3 mg/kg
[5]
  ED50: 40 mg/kg
[6]
  ED50: 4 mg/kg
[7]
  ED50: 50 mg/kg
[8]
  ED50: 3 mg/kg
[9]
  ED50: 15 mg/kg
[10]
  LD50: 115 mg/kg
[11]
  pKa: 8.1
[1]; listed as Antibiotic JI-20A base
  potency (assay against standard Antibiotic JI-20B base): 723 µg/mg
[12]
  MIC: 7.05 µg/mL (≈ 14.6 µM)
[13]
  MIC: 3 µg/mL (≈ 6.23 µM)
[14]
  MIC: 0.3 µg/mL (≈ 0.623 µM)
[15]
  MIC: 0.8 µg/mL (≈ 1.66 µM)
[16]
  MIC: 7.5 µg/mL (≈ 15.6 µM)
[17]
  MIC: 0.05 µg/mL (≈ 0.104 µM)
[18]
  MIC: 0.3 µg/mL (≈ 0.623 µM)
[19]
  MIC: 7.5 µg/mL (≈ 15.6 µM)
[20]
  MIC: 3 µg/mL (≈ 6.23 µM)
[21]
  MIC: 0.3 µg/mL (≈ 0.623 µM)
[22]
  MIC: 3 µg/mL (≈ 6.23 µM)

## CN[C@@H]1[C@@H](O)[C@@H](O[C@@H]2[C@@H](O)[C@H](O[C@H]3O[C@H](C(C)N)[C@@H](O)[C@H](O)[C@H]3N)[C@@H](N)C[C@H]2N)OC[C@]1(C)O (stereo partly shown) [Antibiotic JI-20B sulfate]
[1]
  potency (assay against standard Antibiotic JI-20B base): 730 µg/mg

## CN[C@@H]1[C@@H](O)[C@@H](O[C@@H]2[C@@H](O)[C@H](O[C@H]3O[C@H](C(C)N)[C@@H](O)[C@H](O)[C@H]3N)[C@@H](N)C[C@H]2N)OC[C@]1(C)O (stereo partly shown) [Antibiotic JI-20B]
[2]
  ED50: 50 mg/kg
[3]
  ED50: 14 mg/kg
[4]
  ED50: 2.8 mg/kg
[5]
  ED50: 40 mg/kg
[6]
  ED50: 8 mg/kg
[7]
  ED50: 50 mg/kg
[8]
  ED50: 4.5 mg/kg
[9]
  ED50: 15 mg/kg
[10]
  LD50: 115 mg/kg
[11]
  pKa: 8.1
[1]; Staphylococcus aureus, ATCC6538P, 1 microgram of standard in 1 ml 0.1M phosphate buffer pH 8.0, read-out: zonal response
  zone of inhibition at 1 µg/mL: 16.8 ± 1.5 mm
[12]
  MIC: 0.08 µg/mL (≈ 0.161 µM)
[13]
  MIC: 7.5 µg/mL (≈ 15.1 µM)
[14]
  MIC: 0.3 µg/mL (≈ 0.605 µM)
[15]
  MIC: 0.8 µg/mL (≈ 1.61 µM)
[16]
  MIC: 7.5 µg/mL (≈ 15.1 µM)
[17]
  MIC: 0.08 µg/mL (≈ 0.161 µM)
[18]
  MIC: 0.8 µg/mL (≈ 1.61 µM)
[19]
  MIC: 17.5 µg/mL (≈ 35.3 µM)
[20]
  MIC: 3 µg/mL (≈ 6.05 µM)
[21]
  MIC: 0.3 µg/mL (≈ 0.605 µM)
[22]
  MIC: 17.5 µg/mL (≈ 35.3 µM)

From patent US4009269A, “Antibiotic compositions and methods from micromonospora purpurea JI-20” (Schering Corporation, priority 1975, dated 1977)
